Assay [1] has as its system HCV replication, genotype 1a (Huh-7 HCV replicon cell). Put plainly: Replicon ELISA cell based assay, genotype 1a. The settings on record: Hepatitis C virus, Huh-7 HCV replicon cells, 72 hours, mean, assayed at least twice. The procedure: (§1) Replicon ELISA Cell Based Assay
(§2) 100 μL of medium containing 10% FCS were added to each well of clear, flat-bottomed 96 well microplates, excepting wells in the top row. Test compound was diluted in assay medium to twice the final required starting concentration from a 40 mM stock solution in DMSO. 200 μL of the starting dilution were introduced into two wells each in the top row and doubling dilutions made down the plate by the sequential transfer of 100 μL aliquots with thorough mixing in the wells; the final 100 μL were discarded. The two bottom rows were not used for compound dilutions. Huh-7 HCV replicon cell monolayers nearing confluency were stripped from growth flasks with versene-trypsin solution and the cells were resuspended in assay medium at either 2×10^5 cells/mL (sub-line 5-15; genotype 1b; Lohmann, V., Korner, F., Koch, J-O., Herian, U., Thielmann, L. and Bartenschlager, R., Science, 1999, 285, 110-113) or at 3×10^5 cells/mL (genotype 1a; Gu, B., Gates, A. T., Isken, O., Behrens, S. E. and Sarisky, R. T., J. Virol., 2003, 77, 5352-5359). 100 μL of cell suspension were added to all wells and the plates incubated at 37° C. for 72 hours in a 5% CO2 atmosphere.
(§3) Following incubation, the assay medium was aspirated from the plates. The cell sheets were washed by gentle immersion in phosphate buffered saline (PBS), which was then aspirated off, and fixed with acetone:methanol (1:1) for 5 minutes. Following a further wash with PBS, 100 μL of ELISA diluent (PBS+0.05% v/v Tween 20+2% w/v skimmed milk powder) were added to all wells and the plates incubated at 37° C. for 30 minutes on an orbital platform. The diluent was removed and each well then received 50 μL of a 1/200 dilution of anti-HCV specific, murine, monoclonal antibody (either Virostat #1872 or #1877), except for wells in one of the compound-free control rows which received diluent alone to act as negative controls. The plates were incubated at 37° C. for 2 hours and washed 3 times with PBS/0.05% Tween 20, then 50 μL of horseradish peroxidase conjugated, anti-mouse, rabbit polyclonal serum (Dako #P0260), diluted 1/1000, were added to all wells. The plates were incubated for a further hour, the antibody removed and the cell sheets washed 5 times with PBS/Tween and blotted dry. The assay was developed by the addition of 50 μL of ortho-phenylenediamine/peroxidase substrate in urea/citrate buffer (SigmaFast, Sigma #P-9187) to each well, and colour allowed to develop for up to 15 minutes. The reaction was stopped by the addition of 25 μL per well of 2 M sulphuric acid and the plates were read at 490 nm on a Fluostar Optima spectrophotometer.
(§4) The substrate solution was removed and the plates were washed in tap water, blotted dry and the cells stained with 5% carbol fuchsin in water for 30 minutes. The stain was discarded and the cell sheets washed, dried and examined microscopically to assess cytotoxicity.
(§5) The absorbance values from all compound-free wells that had received both primary and secondary antibodies were averaged to obtain a positive control value. The mean absorbance value from the compound-free wells that had not received the primary antibody was used to provide the negative (background) control value. The readings from the duplicate wells at each compound concentration were averaged and, after the subtraction of the mean background from all values, were expressed as a percentage of the positive control signal. The quantifiable and specific reduction of expressed protein detected by the ELISA in the presence of a drug can be used as a measure of replicon inhibition. GraFit software (Erithacus Software Ltd.) was used to plot the curve of percentage inhibition against compound concentration and derive the 50% inhibitory concentration (IC50) for the compound.
A general note: A replicon is a self-replicating genome or part of one, used to study replication in cells.

For assay [2], the system named is HCV replication, genotype 1b (Huh-7 HCV replicon cell, sub-line 5-15). Put plainly: Replicon ELISA cell based assay, genotype 1b. The settings on record: Hepatitis C virus, Huh-7 HCV replicon cells, genotype 1b (sub-line 5-15), 72 hours, mean, assayed at least twice. As to the method: as §1, §2, §3, §4, §5

As a reminder, the IC50 is the concentration at which inhibition is half-maximal. High values mean lower potency, low ones higher potency.

SMILES strings stand for the structures.

As to `CC(C)N(c1cc(-c2ccccc2)sc1C(=O)O)C(=O)[C@H]1CC[C@H](C)CC1` [Compound A, 5-Phenyl-3-[[(trans-4-methylcyclohexyl)carbonyl](1-methylethyl)amino]-2-thiophenecarboxylic acid, reference compound], the IC50 in assay [1] was 1000 to 5000 nM; in assay [2] it was 100 to 500 nM.

For the compound `CC(C)N(c1cc(-c2ccc(Cl)cc2)sc1C(=O)O)C(=O)[C@H]1CC[C@H](C)CC1` [Compound B, 5-(4-Chlorophenyl)-3-[[(trans-4-methylcyclohexyl)carbonyl](1-methylethyl)amino]-2-thiophenecarboxylic acid, reference compound], the half-inhibitory concentration (IC50) in assay [1] and in assay [2] was 1000 to 5000 nM each time.

With `CC(C)N(c1cc(-c2ccc(-c3ccc(Cl)cc3)cc2)sc1C(=O)O)C(=O)[C@H]1CC[C@H](C)CC1` [Compound C, 5-(4′-Chloro-4-biphenylyl)-3-[[(trans-4-methylcyclohexyl)carbonyl](1-methylethyl)amino]-2-thiophenecarboxylic acid, reference compound], the IC50 is 1000 to 5000 nM in assay [1] and > 5000 nM in assay [2].

Regarding `CC(C)N(c1cc(-c2ccc(C#N)cc2)sc1C(=O)O)C(=O)[C@H]1CC[C@H](C)CC1` [Compound D, 5-(4-Cyanophenyl)-3-[[(trans-4-methylcyclohexyl)carbonyl](1-methylethyl)amino]-2-thiophenecarboxylic acid, reference compound], the IC50 in assay [1] and in assay [2] was 1000 to 5000 nM throughout.

With `CC(=O)c1ccc(-c2cc(N(C(=O)[C@H]3CC[C@H](C)CC3)C(C)C)c(C(=O)O)s2)cc1` [Compound E, 5-(4-Acetylphenyl)-3-[[(trans-4-methylcyclohexyl)carbonyl](1-methylethyl)amino]-2-thiophenecarboxylic acid, reference compound], the IC50 in assay [1] and in assay [2] was 1000 to 5000 nM in each case.

`CC(C)N(C(=O)c1ccc(Cl)cc1Cl)c1cc(-c2ccc(-c3nnn[nH]3)cc2)sc1C(=O)O` [Compound F, 3-[[(2,4-Dichlorophenyl)carbonyl](1-methylethyl)amino]-5-[4-(1H-tetrazol-5-yl)phenyl]-2-thiophenecarboxylic acid, reference compound]: the results for the IC50 in assay [1] and in assay [2] were 1000 to 5000 nM and > 5000 nM, respectively.

`CC(C)N(c1cc(-c2ccc(-c3cc4ncccc4o3)cc2)sc1C(=O)O)C(=O)[C@H]1CC[C@H](C)CC1` [Example 1, 5-(4-Furo[3,2-b]pyridin-2-ylphenyl)-3-[[(trans-4-methylcyclohexyl)carbonyl](1-methylethyl)amino]-2-thiophenecarboxylic acid]: the IC50 in assay [1] and in assay [2] was 10 to 50 nM throughout.

For the compound `CC(C)N(c1cc(-c2ccc(-c3cc4ncccn4n3)cc2)sc1C(=O)O)C(=O)[C@H]1CC[C@H](C)CC1` [Example 2, 3-[[(trans-4-Methylcyclohexyl)carbonyl](1-methylethyl)amino]-5-(4-pyrazolo[1,5-a]pyrimidin-2-ylphenyl)-2-thiophenecarboxylic acid], the IC50 in assay [1] and in assay [2] was 10 to 50 nM throughout.

As to `CC(C)N(c1cc(-c2ccc(-c3cn4ccccc4n3)cc2)sc1C(=O)O)C(=O)[C@H]1CC[C@H](C)CC1` [Example 3, 5-(4-Imidazo[1,2-a]pyridin-2-ylphenyl)-3-[[(trans-4-methylcyclohexyl)carbonyl](1-methylethyl)amino]-2-thiophenecarboxylic acid], the IC50 in assay [1] was in the range of 50 to 100 nM; in assay [2] it was 10 to 50 nM.

As to `CC(C)N(c1cc(-c2ccc(-c3cn4ccsc4n3)cc2)sc1C(=O)O)C(=O)[C@H]1CC[C@H](C)CC1` [Example 4, 5-(4-Imidazo[2,1-b][1,3]thiazol-6-ylphenyl)-3-[[(trans-4-methylcyclohexyl)carbonyl](1-methylethyl)amino]-2-thiophenecarboxylic acid], the figures for the IC50 in assay [1] and in assay [2] were 50 to 100 nM and 10 to 50 nM, respectively.

`Cc1cc(N)n2nc(-c3ccc(-c4cc(N(C(=O)[C@H]5CC[C@H](C)CC5)C(C)C)c(C(=O)O)s4)cc3)cc2n1` [Example 5, 5-[4-(7-Amino-5-methylpyrazolo[1,5-a]pyrimidin-2-yl)phenyl]-3-[[(trans-4-methylcyclohexyl)carbonyl](1-methylethyl)amino]-2-thiophenecarboxylic acid]: the IC50 in assay [1] and in assay [2] was < 5 nM in each case.

For the compound `Cc1ccn2nc(-c3ccc(-c4cc(N(C(=O)[C@H]5CC[C@H](C)CC5)C(C)C)c(C(=O)O)s4)cc3)cc2n1` [Example 6, 3-[[(trans-4-Methylcyclohexyl)carbonyl](1-methylethyl)amino]-5[4-(5-methylpyrazolo[1,5-a]pyrimidin-2-yl)phenyl]-2-thiophenecarboxylic acid], the IC50 in assay [1] is 50 to 100 nM; in assay [2], 10 to 50 nM.

Regarding `CC(C)N(c1cc(-c2ccc(-c3cc4nccc(N)n4n3)cc2)sc1C(=O)O)C(=O)[C@H]1CC[C@H](C)CC1` [Example 7, 5-[4-(7-Aminopyrazolo[1,5-a]pyrimidin-2-yl)phenyl]-3-[[(trans-4-methylcyclohexyl)carbonyl](1-methylethyl)amino]-2-thiophenecarboxylic acid], the half-maximal inhibitory concentration (IC50) in assay [1] and in assay [2] was < 5 nM throughout.

Turning to `CC(C)N(c1cc(-c2ccc(-c3nc4ncccc4o3)cc2)sc1C(=O)O)C(=O)[C@H]1CC[C@H](C)CC1` [Example 8, 3-[[(4-Methylcyclohexyl)carbonyl](1-methylethyl)amino]-5-(4-[1,3]oxazolo[4,5-b]pyridin-2-ylphenyl)-2-thiophenecarboxylic acid], the IC50 in assay [1] and in assay [2] was 10 to 50 nM in each case.

For `CC(C)N(c1cc(-c2ccc(-c3cnc4occc4c3)cc2)sc1C(=O)O)C(=O)[C@H]1CC[C@H](C)CC1` [Example 9, 5-(4-Furo[2,3-b]pyridin-5-ylphenyl)-3-[[(trans-4-methylcyclohexyl)carbonyl](1-methylethyl)amino]-2-thiophenecarboxylic acid], the results for the IC50 in assay [1] and in assay [2] were 100 to 500 nM and 50 to 100 nM, respectively.

With `CC(C)N(c1cc(-c2ccc(-c3nc4cc(N)ccc4o3)cc2)sc1C(=O)O)C(=O)[C@H]1CC[C@H](C)CC1` [Example 10, 5-[4-(5-Amino-1,3-benzoxazol-2-yl)phenyl]-3-[[(trans-4-methylcyclohexyl)carbonyl](1-methylethyl)amino]-2-thiophenecarboxylic acid], the IC50 in assay [1] lay in the range of 50 to 100 nM; in assay [2], 100 to 500 nM.

Regarding `CC(C)N(c1cc(-c2ccc(-c3nc4cccnc4o3)cc2)sc1C(=O)O)C(=O)[C@H]1CC[C@H](C)CC1` [Example 11, 3-[[(4-Methylcyclohexyl)carbonyl](1-methylethyl)amino]-5-(4-[1,3]oxazolo[5,4-b]pyridin-2-ylphenyl)-2-thiophenecarboxylic acid], the IC50 in assay [1] and in assay [2] was 100 to 500 nM in each case.

For the compound `CC(C)N(c1cc(-c2ccc(-c3cc4cnccc4o3)cc2)sc1C(=O)O)C(=O)[C@H]1CC[C@H](C)CC1` [Example 12, 5-(4-Furo[3,2-c]pyridin-2-ylphenyl)-3-[[(trans-4-methylcyclohexyl)carbonyl](1-methylethyl)amino]-2-thiophenecarboxylic acid], the IC50 in assay [1] was 100 to 500 nM; in assay [2], 50 to 100 nM.
